The conditions of series [1]: simple diffusion, not active transport; cited from earlier work.
The conditions of series [2]: topical; cited from earlier work.
The next series has as its system skin's Hyaluronic Acid. The series can be described thus: Live clinical human experiments, one side of face, neck and hands treated, other side base (placebo) lotion. It is filed as in vivo. To be noted: 5% concentration, topical, versus placebo lotion on other side. An excerpt: In examining the prior art we found our patent to be unique: • 1. U.S. Pat. No. 5,391,373 (Mausner) is distinguished by its failure to use an adequate amount of Glucosamine in order to achieve the substrate concentration for the enzyme Hyaluronate Synthase to produce a sufficient quantity and concentration of Hyaluronic Acid necessary to achieve any meaningful change in the texture of the skin, including its ability to hold onto sufficient water to increase internal hydration. Their patent claims: “1. (d) about 0.001% to 0.1% of a carbohydrate-based complex comprising dextran, glycine, and Glucosamine;”. […] Their minimum range amount claimed is calculated as: 0.001% (0.00001) times 5% (0.05%) equals 0.0000005, which is 0.00005% and equals 5 one-hundred-thousandths of a gram per 100 milliliters, and is totally inconsequential for having any positive effect. […]

The conditions of series [3]: oral dose of Glucosamine Sulfate, humans; cited from earlier work.
The conditions of series [4]: topical; cited from earlier work. The source holds these as a separate data set.
For series [5] the following is noted: oral, dog; cited from earlier work.
Another series deals with solar lentinges. Particulars: cited from earlier work.

Read-outs that look alike come from different tables or passages of the source.

Turning to `CC(=O)N[C@H]1C(O)O[C@H](CO)[C@@H](O)[C@@H]1O` (stereo partly drawn) [N-acetylglucosamine, N-acetyl-D-Glucosamine], the oral absorption result in series [1] is “not well absorbed orally”. Moreover, the “absorption through the skin” value in series [2] is “very poorly absorbed through the skin”.

Turning to `N[C@H]1C(O)O[C@H](CO)[C@@H](O)[C@@H]1O.O=S(=O)(O)O` (stereo partly drawn) [Glucosamine Sulfate], the “production of the skin's Hyaluronic Acid” value with skin's Hyaluronic Acid is given as “markedly enhancing”. For the same molecule, the absorbed entry in series [3] is “about 90%”. Besides, the “absorption through the skin” value in series [2] was “much better absorbed into the body via the skin”.

Consider “hyaluronic acid [600,000 Dalton molecular weight hyaluronic acid]”, for which, in series [4], the “absorption into the skin” value was “only a few percent”.

Consider `N[C@@H]1[C@@H](O)[C@H](O)[C@@H](CO)O[C@@H]1O` [Glucosamine, 2-amino-2-deoxy-alpha-D-glucose], for which, in series [5], the absorbed was 87%.

As to Ascorbyl Glucosamine, the “effect on skin ("liver spot") pigmentation” value with solar lentinges is given as “no positive effects”.

Take “hyaluronic acid [250,000 Dalton sized hyaluronic acid]”: in series [4], the “absorption into the skin” value is given as “very low percentage”.

These data come from US20070092469A1, “Topically applied Glucosamine Sulfate and all its related, precursor, and derivative compounds significantly increases the skin's natural produciton of hyaluronic acid for the rejuvenation of healthier younger-looking skin; while PhosphatidylCholine is required to replace its deficiency caused by …” (priority 2005, published 2007).
